For test [1], the system named is LLC-WRC 256 cells. The test is described as follows: Antineoplastic efficacy of CP by trypan blue exclusion assay (percentage of non-viable cells). As to conditions: for effect of the inhibitor on the antineoplastic efficacy of cisplatin: 30 min preincubation with DFO 1 mM, DMSO 5 mM, CM 2 mM or PB 1 mM, then cisplatin 500 μg/ml for 5 hours, FIGS. 2 and 3. It is filed as cell-based, rat. The procedure:
LLC-WRC 256 cells (Walker rat carcinoma cells) purchased from American Type Culture Collection (ATCC, Rockville, Maryland) were maintained in 75 cm^2 tissue culture flasks containing Medium 199 supplemented with 5% fetal bovine serum (Gibco, Gaithersburg, Md.) in a humidified atmosphere of 95% air-5% CO2 at 37° C. For the experimental study, the cell monolayers were subcultured with 0.25% trypsin into a 12-well tissue culture plate until confluence. The antineoplastic efficacy of CP in LLC-WRC 256 cells was measured by the cell viability determined by the trypan blue exclusion assay. Cells failing to exclude the dye were considered non-viable, and data expressed as the percentage of non-viable cells. Antineoplastic efficacy of CP was examined as previously described (Rawlings and Roberts, 1986, Mutation Research 166(2): 157-168.). The cells were incubated with various concentrations of CP (0-600 μg/ml) at different time points (0-6 h) in HBSS at 37° C. At the end of the incubation, the cell viability was determined. Confluent LLC-WRC 256 cell monolayer was incubated with antineoplastic dose of CP for a period of time necessary to induce consistent antineoplastic activity (CP 500 μg/ml in HBSS for 5 hours at 37° C., based on the. initial observation). The cell monolayers were preincubated with iron chelator, deferoxamine (1 mM) or hydroxyl radical scavenger, dimethyl sulfoxide (5 mM) at 37° C. for 30 minutes, washed twice with HBSS and then followed by the addition of CP. LLC-WRC 256 cell monolayers were preincubated with cimetidine (2 mM) or piperonyl butoxide (1 mM) at 37° C. for 30 min, washed with HBSS twice and then followed by the addition of CP (500 μg/ml for 5 hours at 37° C.)

Test [2] has as its system LLC-WRC 256 cells. In words: Hydroxyl radical formation, deoxyribose degradation method. It is filed as cell-based, rat. As to conditions: CP 500 μg/ml for 2.5 hours, n=4; control 0.45±0.03. As for the experimental part: Confluent cell monolayers were washed with HBSS and then incubated with cytotoxic dose of CP in HBSS at 37° C. for a period of time before substantial cell killing occurred (500 μg/ml for 2.5 hours). 2-deoxy-D-ribose at a final concentration of 3 mM was added to the medium just prior to the incubation. At the end of the incubation, the medium was collected for the measurement of hydroxyl radical formation by deoxyribose degradation method as described by Halliwell et al., 1988, Meth. Biochem. Anal 33:59-90. In brief, 0.5 ml of the incubation medium was mixed with 0.5 ml of 1% (w/v). 5 thiobarbituric acid in 50 mM NaOH and 0.5 ml of 2.8% (w/v) aqueous trichloroacetic acid, heated at 100° C. for 15 min, cooled and followed by extraction with 1.5ml n-butanol. The absorbance at 532 nm of the resulting supernatant was then taken, and the hydroxyl radical level was calculated by using the extinction coefficient of 156 mM^−1 cm^−1.

Test [3] deals with LLC-WRC 256 cells. The test is described as follows: Catalytic iron release into the medium, bleomycin assay. It is filed as cell-based, rat. As to conditions: CP 500 μg/ml for 2.5 hours, n=6; control 2.44±0.59. As for the experimental part:
Confluent […] 256 cells were washed twice with Chelex-treated HBSS and then incubated with a cytotoxic, dose of CP in Chelex-treated HBSS for a period of time before substantial cell killing occurred (500 μg/ml for 2.5 hours at 37° C., based on the time course study). The catalytic iron released into the medium was measured by the bleomycin assay, as described below. Iron capable of catalyzing free radical reactions (catalytic iron) was measured by the bleomycin assay as utilized in our previous studies (Baliga et al. , 1998, Kidney Int. 53:394-401, and Baliga et al., 1998, Kidney Int. 54:1562-1569). All reagents except for the experimental samples were made up in Chelex-treated pyrogen-free water and shaken with Chelex 100 to remove as much contaminating iron as possible. The reaction mixture contained in order: 0.5 ml of calf thymus DNA (1 mg/ml), 0.05 ml of bleomycin sulfate (1 mg/ml), 0.1 ml MgCl2 (50 mM), 0.1 ml of sample, 0.1 ml of ascorbic acid (8 mM), and either HCl (50 mM) or NaOH (50 mM) to adjust pH in the range of 7.2-7.8. […] The reaction mixture was then heated at 100° C. for 15 minutes, cooled and the resulting chromogen measured using spectrophotometer at A 532 nm. The amount of bleomycin detectable iron in the test sample was calculated from the standard curve and the results expressed as nmol/mg cellular protein recovered from the cell monolayer.

Test [4] concerns cardiotoxicity induced by doxorubicin. The note with it: women with breast cancer; cited from earlier work.

The structures appear in SMILES notation. Entries after “also recorded” stand apart in the source; their conditions may differ.

Results on 4 compounds are retold here after patent US20020183333A1, “Compositions and methods for chemotherapy having reduced nephrotoxicity” (priority 2000, published 2002).

Regarding `CN/C(=N/CCSCc1nc[nH]c1C)NC#N` [CM, cimetidine], in the test with LLC-WRC 256 cells [1], the “effect of the inhibitor on the antineoplastic efficacy of cisplatin” value is recorded as “does not reduce the antineoplastic efficacy of CP; also recorded: do not effect the antineoplastic activity of CP”.

For `N.N.[Cl][Pt][Cl]` [CP, cisplatin], in the test with LLC-WRC 256 cells [2], the “generation of hydroxyl radical” value is on record as 0.41±0.03 nmol/mg protein. The compound further displayed a catalytic iron release in the test on LLC-WRC 256 cells [3] of 2.78±0.41 nmol/mg protein. Further, the “time of exposure that results in significant cell death” value in the test on LLC-WRC 256 cells [1] (CP 500 μg/ml, time course 0-6 hours, FIG. 1B) is 5 h. Moreover, the “low dose at which significant cell death occurs” value with LLC-WRC 256 cells [1] (LLC-WRC 256 cells, 4 hour incubation, CP 0-600 μg/ml, FIG. 1A) was determined as 50 µg/mL. Also, the “CP dose required to produce submaximal injury” value in the test on LLC-WRC 256 cells [1] (LLC-WRC 256 cells, concentration dependent effects, FIG. 1A) is 500 µg/mL.

In the case of `C[S+](C)[O-]` [DMSO, dimethyl sulfoxide], the “effect of the inhibitor on the antineoplastic efficacy of cisplatin” value in the test with LLC-WRC 256 cells [1] is reported as “CP still functions as an antineoplastic compound; also recorded: does not reduce the antineoplastic efficacy of CP”.

In the case of `C[C@@H](CN1CC(=O)NC(=O)C1)N1CC(=O)NC(=O)C1` [dexrazoxane], the “effect on frequency and severity of doxorubicin-induced cardiotoxicity” value in test [4] was “decrease the frequency and severity of cardiotoxicity”.
